# How the values were obtained:
# [1] = test system: HCT116 cells expressing OsTIR1(F74G); experiment: Control xenograft of HCT116 cells expressing OsTIR1(F74G) in nude mice; type: in vivo; settings: 1, 3 and 10 mg/kg intraperitoneally daily, day 7 to day 14; control without degron-tagged target
# mAID-EGFP reporters = target: T1, mAID-EGFP reporters (Oryza sativa subsp. japonica, UniProt Q7XVM8, F74G); experiment: Reporter removal in transgenic mice expressing OsTIR1(F74G) and mAID-EGFP reporter; type: in vivo
# T1 construct: expressed in transfected cells; host or cells: transgenic mice (organs and E13.5 embryos)
# Procedure: In order to further confirm whether the AID2 system functioned in a living body of mice, an attempt to establish transgenic mice expressing OsTIR1(WT) or OsTIR1(F74G) together with mAID-EGFP reporters was performed. As shown in FIG. 11(A), OsTIR1(WT) was confirmed to cause embryonic lethality. In contrast, the establishment of a plurality of mouse strains expressing OsTIR1(F74G) and reporters was confirmed (refer to FIG. 11(A).
# Two adult female transgenic mice from the same TG strain were used to remove reporters in a plurality of organs.
# First, as shown in FIG. 11(B), the expression of reporters in the ovaries and fallopian tubes surgically removed from untreated transgenic mice was confirmed.
# Subsequently, pseudo-administration is performed on one mouse and 10 mg/kg 5-ph-IAA was intraperitoneally administered to the other mouse. […] The same data was obtained for adult male mice derived from the same TG strain.
# Finally, the expression of the reporter in embryos was examined to confirm a rate of removal of a target protein using the AID2 system in vivo. 5 mg/kg of 5-Ph-IAA was intraperitoneally administered to pregnant females with E13.5 embryos. As shown in FIG. 11(D), a reporter signal disappeared within 1 hour after administration and rapid removal of the reporter in vivo was confirmed.
# [2] = target: T2, OsTIR1(F74G)/DHC1-mAID-Clover expressing cell (Oryza sativa subsp. japonica, UniProt Q7XVM8, F74G); experiment: Degradation induction test of DHC1 (microscopy, Western blotting); type: cell-based, human
# T2 construct: expressed in transfected cells; host or cells: HCT116 (OsTIR1 at AAVS1 locus; knock-in at the endogenous DHC1 gene)
# Excerpt: In the HCT116 cell, an OsTIR1(WT) gene or OsTIR1(F74G) gene was introduced into an AAVS1 gene locus, which is a safe harbor site, using a CRISPR/Cas system, and an OsTIR1(WT)-expressed HCT116 cell or OsTIR1(F74G)-expressed HCT116 cell was constructed.
# A plasmid vector having mAID, clover and a neomycin resistance gene and having a homologous sequence with respect to a DHC1 gene so as to sandwich mAID and the neomycin resistance gene was introduced into the OsTIR1(WT)-expressed HCT116 cell or OsTIR1(F74G)-expressed HCT116 cell using a CRISPR/Cas9 system, and homologous recombination with the endogenous DHC1 gene was performed. Next, after selection by G418, the formed colony was dyed using crystal violet. “DHC1” is the abbreviation for dynein heavy chain 1.
# A degradation induction test of DHC1 was performed using the HCT116 cell expressing OsTIR1(F74G) on which homologous recombination had been performed in the above-described section 2 (hereinafter, referred to as “OsTIR1(F74G)/DHC1-mAID-Clover expressing cell”).
# The compound indicated by the formula (I-2) (also referred to as 5-Ph-IAA) was added to the OsTIR1(F74G)/DHC1-mAID-Clover expressing cell, and the appearance of the cell after 24 hours was observed (FIG. 4(A)).
# Furthermore, the degradation of DHC1 was confirmed by Western blotting (FIG. 4(B)).
# [3] = test system: OsTIR1(F74A)/mAID-EGFP-NLS-expressing cells; experiment: Reversibility of the AID2 system: reporter recovery after removal of 5-Ph-IAA; type: cell-based; settings: medium replaced with medium without 5-Ph-IAA
# mAID-BRD4 xenografts = target: T3, mAID-BRD4 xenografts (Oryza sativa subsp. japonica, UniProt Q7XVM8, F74G); experiment: mAID-BRD4 cell xenograft tumor growth in nude mice; type: in vivo
# T3 construct: expressed in transfected cells; host or cells: HCT116 CMV-OsTIR1(F74G), xenografted into nude mice
# Procedure: (§1) Subsequently, mAID-BRD4 cells or TOP2A-mAC cells were subcutaneously transplanted into nude mice and xenograft tumors were formed in 1 week. After that, 0, 1, 3, and 10 mg/kg of 5-Ph-IAA were intraperitoneally administered daily for an additional week (day 7 to day 14). […] It was confirmed that, when the AID2 system is used, mAID-BRD4 and TOP2A-mAC were successfully removed in a living body of mice, causing tumor suppression.
# Furthermore, 3 mg/kg of 5-Ph-IAA was orally administered to nude mice in which mAID-BRD4 cells were xenografted. FIG. 13(A) is a diagram showing an oral administration schedule of 5-Ph-IAA.
# mAID-EGFP-CENPH = target: T4, mAID-EGFP-CENPH (Oryza sativa subsp. japonica, UniProt Q7XVM8, F74G); experiment: Western blotting of mAID-EGFP-CENPH degradation in HeLa cell (transposon vector + CRISPR-KO system); type: cell-based, human; settings: anti-CENPH antibody, endogenous CENPH knocked out
# T4 construct: P2A linker (self-cleaving; remnant); expressed in transfected cells; host or cells: HeLa
# Excerpt: (§2) In this degradation system, (1) a transposon vector in which an OsTIR1(F74G) gene and an mAID-target gene are connected by a P2A linker gene and (2) a CRISPR-KO vector for knocking out an endogenous target gene containing gRNA and a Cas9 gene are contained.
# (§3) In this degradation system, the OsTIR1(F74G) gene and the mAID-target gene in a genome are integrated by the transposon vector, and an endogenous target gene is knocked out by the CRISPR-KO vector.
# (§4) The transposon vector in which an OsTIR1(F74G) gene and an mAID-EGFP-CENPH or mAID-EGFP-POLD1 target gene were connected by a P2A linker gene was constructed, and this vector was introduced into a HeLa cell together with the CRISPR-KO vector targeting an endogenous CENPH or POLD1 gene. 5-Ph-IAA was added to such a cell, and the degradation of the target protein was confirmed by Western blotting (FIG. 6).
# [4] = target: T5, OsTIR1(F74G)/mAID-EGFP-NLS expressing cell (Oryza sativa subsp. japonica, UniProt Q7XVM8, F74G); experiment: FACS analysis of degradation of mAID-EGFP-NLS after addition of auxin analog; type: cell-based, human; settings: Example 2; 50 nM, 100 nM, 500 nM or 1 μM, 24 hours; compared with OsTIR1(WT) cell plus auxin
# T5 construct: expressed in transfected cells; host or cells: HCT116
# Procedure: An HCT116 cell (human colon adenocarcinoma-derived cell) having DNA in which an OsTIR1(WT) gene or OsTIR1(F74G) gene and an mAID-EGFP (green fluorescent protein)-NLS (nuclear localization signal) gene were encoded through a P2A sequence inserted onto a chromosome by a transposon (hereinafter, referred to as “OsTIR1(WT)/mAID-EGFP-NLS expressing cell” or “OsTIR1(F74G)/mAID-EGFP-NLS expressing cell”) was prepared (refer to FIG. 1).
# The auxin analog (concentration in culture medium: […]) was added to the OsTIR1(F74G)/mAID-EGFP-NLS expressing cell and cultured for 24 hours. In addition, as a control, a cell containing an auxin added to the OsTIR1(WT)/mAID-EGFP-NLS expressing cell was also prepared.
# After 24 hours from the addition of the auxin analog, the cells were collected, and FACS analysis was performed.
# An HCT116 cell (human colon adenocarcinoma-derived cell) in which a plasmid containing an OsTIR1(WT) gene or OsTIR1(F74G) gene was introduced and an mAID-EGFP (green fluorescent protein)-NLS (nuclear localization signal) gene was inserted onto a chromosome (hereinafter, referred to as “OsTIR1(WT)/mAID-EGFP-NLS expressing cell” or “OsTIR1(F74G)/mAID-EGFP-NLS expressing cell”) was prepared (refer to FIG. 1).
# The auxin analog (concentration in culture medium: 0, 50 nM, 100 nM, 500 nM or 1 μM) was added to the OsTIR1(F74G)/mAID-EGFP-NLS expressing cell and cultured for 24 hours. […]
# TOP2A-mAC xenografts = target: T6, TOP2A-mAC xenografts (Oryza sativa subsp. japonica, UniProt Q7XVM8, F74G); experiment: TOP2A-mAC cell xenograft tumor growth in nude mice; type: in vivo; settings: 1, 3 and 10 mg/kg intraperitoneally daily, day 7 to day 14
# T6 construct: expressed in transfected cells; host or cells: HCT116 CMV-OsTIR1(F74G), xenografted into nude mice
# Procedure: as §1
# [5] = Toxicity evaluation in mice (body weight); type: in vivo; settings: 1, 3 and 10 mg/kg intraperitoneally daily for 1 week
# Procedure: Toxicity was evaluated by intraperitoneally administering 0, 1, 3, and 10 mg/kg of 5-Ph-IAA daily for 1 week. As shown in FIG. 7(B), a change in body weight of the mice which had been subjected to the administration was not observed.
# mAID-EGFP-POLD1 = target: T7, mAID-EGFP-POLD1 (Oryza sativa subsp. japonica, UniProt Q7XVM8, F74G); experiment: Western blotting of mAID-EGFP-POLD1 degradation in HeLa cell (transposon vector + CRISPR-KO system); type: cell-based, human; settings: anti-POLD1 antibody, clones #1 to #3, endogenous POLD1 knocked out
# T7 construct: P2A linker (self-cleaving; remnant); expressed in transfected cells; host or cells: HeLa
# Excerpt: as §2, §3, §4
structure (smiles),measurement,setting,value
"O=C(O)Cc1c[nH]c2ccc(-c3ccccc3)cc12 [5-Ph-IAA, 5-phenyl-indole 3-acetic acid]",tumor suppression,[1],the tumor suppression was not observed
same,time to disappearance of reporter signal in embryos,mAID-EGFP reporters; 5 mg/kg intraperitoneally to pregnant females with E13.5 embryos,≤ 1 h
same,expression of the reporter in organs,"mAID-EGFP reporters; 10 mg/kg intraperitoneally, 6 hours after administration, ovary, fallopian tubes, small intestine, heart, bladder, brain, adult female",significantly reduced
same,appearance of the cell (mitotic accumulation),[2]; 24 hours after addition,accumulation of cells in the mitotic period was observed
same,degradation of DHC1-mAID-Clover fused protein (microscopic images),[2]; 24 hours after addition,degraded a DHC1-mAID-Clover fused protein
same,degradation of DHC1 and mAID by Western blotting,[2]; clones #1 to #3,degradation of DHC1 and mAID was confirmed
same,time to full restoration of reporter expression after medium replacement,[3],3 h
same,tumor suppression,mAID-BRD4 xenografts; 3 mg/kg orally,significant tumor suppression
same,tumor suppression,"mAID-BRD4 xenografts; 1, 3 and 10 mg/kg intraperitoneally daily, day 7 to day 14",significant tumor suppression
same,degradation of mAID-EGFP-CENPH by Western blotting,mAID-EGFP-CENPH,degradation of mAID-EGFP-CENPH was confirmed
same,degradation of GFP (FACS) at low concentrations,[4],functioned at a considerably low concentration
same,tumor suppression,TOP2A-mAC xenografts,a similar tendency was observed
same,change in body weight,[5],not observed
same,degradation of mAID-EGFP-POLD1 by Western blotting,mAID-EGFP-POLD1,degradation of mAID-EGFP-POLD1 was confirmed

# Source: patent US12522836B2, “Nonhuman animal and use for same” (Inter-University Research Institute Corporation Research …, priority 2019, dated 2026)
